Experimental data: patent publication US7041698B2, “Hepatitis C virus inhibitors” (Bristol-Myers Squibb Company, priority 2002, dated 2006)

Legend:
[1] = molecular target: T1, HCV NS3/4A protease complex (UniProt P27958, C1454S/C1711G, species not given); assay: Recombinant HCV NS3/4A protease complex FRET peptide assay (strain not stated); type: biochemical; conditions: read-out: IC50 range, HCV NS3/4A protease enzyme assay
T1 construct: fused on or other part: Three-lysine solubilising tail at the C-terminus of NS4A

NS3/4A BMS strain = molecular target: T2, NS3/4A BMS strain (UniProt P27958, C1454S/C1711G, species not given/STRAIN_BMS); assay: Recombinant HCV NS3/4A protease complex FRET peptide assay, BMS strain; type: biochemical, HCV genotype 1a; conditions: read-out: IC50 against the NS3/4A BMS strain in the enzyme assay
T2 construct: fused on or other part: Three-lysine solubilising tail at the C-terminus of NS4A
Source text: Recombinant HCV NS3/4A Protease Complex FRET Peptide Assay
The purpose of this in vitro assay was to measure the inhibition of HCV NS3 protease complexes, derived from the BMS, H77C or J416S strains, as described below, by compounds of the present invention. This assay provides an indication of how effective compounds of the present invention would be in inhibiting HCV proteolytic activity.
Serum from an HCV-infected patient was obtained from Dr. T. Wright, San Francisco Hospital. An engineered full-length cDNA (compliment deoxyribonucleic acid) template of the HCV genome (BMS strain) was constructed from DNA fragments obtained by reverse transcription-PCR (RT-PCR) of serum RNA (ribonucleic acid) and using primers selected on the basis of homology between other genotype 1a strains. From the determination of the entire genome sequence, a genotype 1a was assigned to the HCV isolate according to the classification of Simmonds et al. (See P Simmonds, K A Rose, S Graham, S W Chan, F McOmish, B C Dow, E A Follett, P L Yap and H Marsden, J. Clin. Microbiol., 31(6), 1493–1503 (1993)). […]

[2] = molecular target: T3, porcine pancreatic elastase (PPE) (Sus scrofa, UniProt P00772); assay: Specificity assay, porcine pancreatic elastase; type: biochemical; conditions: 2 hr pre-incubation at RT
T3 construct: purchased Sigma
T3 sequence (P00772 27-266): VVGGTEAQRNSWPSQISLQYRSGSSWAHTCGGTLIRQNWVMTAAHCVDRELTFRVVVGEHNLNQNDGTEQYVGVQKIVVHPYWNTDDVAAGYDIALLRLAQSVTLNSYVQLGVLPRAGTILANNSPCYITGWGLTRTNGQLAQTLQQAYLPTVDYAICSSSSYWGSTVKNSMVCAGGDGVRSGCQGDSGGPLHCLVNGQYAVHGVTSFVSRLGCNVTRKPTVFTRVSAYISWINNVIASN
Procedure: (§1) The specificities of compounds of the present invention were determined against a variety of serine proteases: human sputum elastase (HS), porcine pancreatic elastase (PPE) and human pancreatic chymotrypsin and one cysteine protease: human liver cathepsin B. In all cases a 96-well plate format protocol using calorimetric p-nitroaniline (pNA) substrate specific for each enzyme was used as described previously (Patent WO 00/09543) with some modifications to the serine protease assays. All enzymes were purchased from Sigma while the substrates were from Bachem.
(§2) Each assay included a 2 hr enzyme-inhibitor pre-incubation at RT followed by addition of substrate and hydrolysis to ˜30% conversion as measured on a Spectramax Pro microplate reader. Compound concentrations varied from 100 to 0.4 μM depending on their potency. […]
(§3) The percentage of inhibition was calculated using the formula: [1-((UVinh−UVblank)/(UVctl−UVblank))]×100 […]

[3] = test system: T4, human pancreatic chymotrypsin; assay: Specificity assay, chymotrypsin; type: biochemical; conditions: 2 hr pre-incubation at RT
T4 construct: human pancreatic chymotrypsin
Procedure: as §1, §2, §3

human liver cathepsin B = molecular target: T5, human liver cathepsin B (Homo sapiens, UniProt P07858); assay: Specificity assay, cathepsin B; type: biochemical; conditions: 2 hr pre-incubation at RT
T5 construct: purchased Sigma
Procedure: as §1, §2, §3

C=CC1C[C@]1(NC(=O)[C@@H]1C[C@@H](OC(=O)Nc2ccccc2-c2ccccc2)CN1C(=O)[C@@H](NC(=O)OC(C)(C)C)C(C)(C)C)C(=O)NS(=O)(=O)C1CC1 (stereo partly drawn) [Compound 8, BocNH-P3(t-BuGly)-P2(Hyp(O—CO(NH-biphen-2-yl)))-P1(1R,2S VinylAcca)—CONHSO2Cyclopropane] showed an IC50 [1] of under 0.1 µM, an IC50 (NS3/4A BMS strain) of 0.051 µM and an IC50 [2] of over 100 µM. It also gave an IC50 [3] of over 100 µM and an IC50 (human liver cathepsin B) of over 100 µM.
